# Test results taken from patent US8980544B2, “Boronic and borinic acid compounds as inhibitors of sulfenic acid-containing proteins” (The Penn State Research Foundation, priority 2012, dated 2015).
# Read-outs that look alike come from different tables or passages of the source. Marks after values point to notes of the source that are not given here.
# Legend:
# [1] = literature value; cited from earlier work
# [2] = pKa by half-neutralization technique in acetonitrile-water; format: physicochemical
# Protocol: The final volume of the solutions is 5 mL. The averaged pKa values from duplicate measurements are reported, and used for analysis.
# It should be noted that the pKa values determined this way are not corrected for the change in the autoprotolysis constant of the solution due to mix solvent system.
# [3] = Spectrophotometric (UV/vis) titration of boronic acids 2 against the sodium salt of sulfenic acid 1, incl. reversibility with NaOH; conditions: for Kd: read-out: Averaged Kd from spectrophotometric titrations
# Protocol: The titration studies were performed using a Cary 100 Bio UV/vis spectrophotometer thermostated at 22° C. […] Each titration study was completed within 10 minutes.
# The initial solution contained 0.8 mM of the sodium salt of 1.
# [4] = target: T1, iron-based NHase from Rhodococcus erythropolis AJ270 (Rhodococcus erythropolis, UniProt P13448); test: Enzymatic inhibition of nitrile hydratase (NCTB conversion, 412 nm); format: biochemical; conditions: for Average rate (abs/min): 1 mM NCTB, 23° C.; for Rate relative to NHase: NHase without additive = 100%; for Activity: nmol thiolate product per minute per mg freeze-dried NHase powder
# T1 construct: purchased Prozomix Limited
# T1 sequence (P13448 1-207): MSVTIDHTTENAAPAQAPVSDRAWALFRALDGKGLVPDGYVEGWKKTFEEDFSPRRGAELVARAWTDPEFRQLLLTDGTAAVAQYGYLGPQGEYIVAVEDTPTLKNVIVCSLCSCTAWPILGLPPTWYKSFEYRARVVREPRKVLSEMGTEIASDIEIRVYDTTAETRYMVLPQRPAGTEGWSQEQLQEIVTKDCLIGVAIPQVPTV
# T1 sequence (P13449 1-212 partner): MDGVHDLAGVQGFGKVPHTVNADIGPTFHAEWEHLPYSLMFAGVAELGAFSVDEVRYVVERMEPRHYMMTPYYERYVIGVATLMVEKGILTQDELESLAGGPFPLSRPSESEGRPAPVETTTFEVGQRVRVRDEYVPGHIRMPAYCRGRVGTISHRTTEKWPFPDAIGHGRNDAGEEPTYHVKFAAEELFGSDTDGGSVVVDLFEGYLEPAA
# Protocol: Here, the catalytic efficiency of the iron-based NHase from Rhodococcus erythropolis AJ270 (purchased from Prozomix Limited, Station court, Haltwhistle, Northumberland, NE49 9HN, UK; see, proxomix.com) was assayed in the presence of a known sulfenic acid trap (dimedone) and four boronic acid derivatives. The chosen assay [Sari et al., J. Inorg. Biochem. 2007 101:614-622] was the conversion of 2-nitro-5-thiocyanatobenzoic acid (NCTB) into formamide and 5-mercapto-2-nitrobenzoic acid.
# The freeze-dried powder from Prozomix was shipped at room temperature and stored at −20° C. upon arrival. The enzyme was reconstituted at 20 mg/mL in 50 mM phosphate buffer (pH 7.0) with 40 mM butyric acid. These were similar conditions to those described in the Prozomix protocol, the main difference being the use of phosphate buffer instead of Tris buffer; by itself, NHase prepared in Tris had the same reactivity as samples prepared in phosphate buffer. The solution was exposed to 400 W white light for 25 minutes on ice to permit for photo-reactivation of the enzyme.
# The kinetic studies were conducted by diluting the stock solution of NHase into de-ionized distilled water (ddH2O) to get at about 0.33 mg/mL of freeze-dried NHase powder provided by Prozomix (used without further manipulation) in solution. Appropriate amounts of PBA (phenyl boronic acid; 2 g), BOXY ((2-hydroxylmethyl)-benzeneboronic acid hemiester; 2A), 3BrB (3-bromobenzeneboronic acid; 2d), or dimedone were added to the mixtures so that the final concentrations of the boronic acids/dimedone were 0, 0.5, 1.0, 2.0, or 2.5 mM.
# After permitting the newly composed mixtures to sit at room temperature (at about 23° C.) for five minutes, NCTB was added so that the final NCTB concentration equalled 1 mM. The final volume of the mixtures was 1 mL in UV-cells with 1 cm path length. The final concentration of the phosphate buffer was 3.6 mM. The progress of the reaction (release of the thiolate product at 412 nm; extinction coefficient at 412 nm=13600/M/cm) [Sari et al., J. Inorg. […] The rates of the reaction were determined from fitting the first 4 minutes of the absorbance vs. time traces to a standard linear equation. The activity values were calculated as nmol of thiolate product generated per minute per mg of freeze-dried NHase powder. The reaction rates are reported below in Table 4, below, as averages of duplicate kinetic studies.
# [5] = 15% (v/v) acetonitrile-water mixture, 15% (v/v) acetonitrile-water, half-neutralization, averaged duplicates, Table 1, read-out: pKa in 15% acetonitrile-water at 22° C.
# [6] = 70% (v/v) acetonitrile-water mixture, read-out: Averaged pKa value from half neutralization method in 70% (v/v) acetonitrile-water
# [7] = 15% acetonitrile-water mixture, 15% acetonitrile-water, as listed in Table 2, read-out: pKa in 15% acetonitrile-water
# [8] = complex 1:2, 70% (v/v) acetonitrile-water, 22° C.
# [9] = complex 1:2, 15% (v/v) acetonitrile-water
smiles,measurement,setting,value
"O=C1c2ccccc2C(=O)c2c(SO)cccc21 [Compound 1, anthraquinone-1-sulfenic acid, reference compound]","pKa value reported in Kice et al., J. Org. Chem. 1989",[1],7.51
same,pKa,[2]; [5],7.61 ± 0.02
same,pKa,[2]; [6],8.6 ± 0.1
"OB1OCc2ccccc21 [Compound 2A, 2-(hydroxymethyl)benzeneboronic acid hemiester]",Averaged -log (Kd) in 15% acetonitrile-water at 22° C.,[3],3.8 ± 0.1
same,Averaged -log (Kd) in 70% acetonitrile-water at 22° C.,[3],3.90 ± 0.02
same,Kd,[3],158 µM
same,Average rate (abs/min),[4]; [B]/[Dimedone] = 0.5 mM,0.0039 ± 0.0002 abs/min
same,Rate relative to NHase,[4]; [B]/[Dimedone] = 0.5 mM,87%
same,Activity,[4]; [B]/[Dimedone] = 0.5 mM,0.870 nmol/min/mg
same,Average rate (abs/min),[4]; [B]/[Dimedone] = 1.0 mM,0.0034 ± 0.0002 abs/min
same,Rate relative to NHase,[4]; [B]/[Dimedone] = 1.0 mM,74%
same,Activity,[4]; [B]/[Dimedone] = 1.0 mM,0.826 nmol/min/mg
same,Average rate (abs/min),[4]; [B]/[Dimedone] = 2.0 mM,0.00266 ± 0.00008 abs/min
same,Rate relative to NHase,[4]; [B]/[Dimedone] = 2.0 mM,61%
same,Activity,[4]; [B]/[Dimedone] = 2.0 mM,0.592 nmol/min/mg
same,Average rate (abs/min),[4]; [B]/[Dimedone] = 2.5 mM,0.00205 ± 0.00009 abs/min
same,Rate relative to NHase,[4]; [B]/[Dimedone] = 2.5 mM,45%
same,Activity,[4]; [B]/[Dimedone] = 2.5 mM,0.502 nmol/min/mg
same,Effectiveness of NHase inhibition among the boronic acids examined,"[4]; comparison of PBA, BOXY, 3BrB, 0.5-2.5 mM",most effective
same,pKa,[2]; [5],7.8
same,pKa,[2]; [7],7.8
same,pKa,[2]; [6],10.2
"O=[N+]([O-])c1ccc(B(O)O)cc1 [Compound 2b, 4-nitrobenzeneboronic acid]",pKa,[2]; [5],7.39 ± 0.05
"OB(O)c1cccc(Br)c1 [Compound 2d, 3-Bromobenzene-boronic acid]",Averaged -log (Kd) in 70% acetonitrile-water at 22° C.,[3]; [8],4.0 ± 0.1
same,Kd,[3]; [9],158 µM
same,Average rate (abs/min),[4]; [B]/[Dimedone] = 0.5 mM,0.0039 ± 0.0004 abs/min
same,Rate relative to NHase,[4]; [B]/[Dimedone] = 0.5 mM,87%
same,Activity,[4]; [B]/[Dimedone] = 0.5 mM,0.878 nmol/min/mg
same,Average rate (abs/min),[4]; [B]/[Dimedone] = 1.0 mM,0.00369 ± 0.00009 abs/min
same,Rate relative to NHase,[4]; [B]/[Dimedone] = 1.0 mM,81%
same,Activity,[4]; [B]/[Dimedone] = 1.0 mM,0.903 nmol/min/mg
same,Average rate (abs/min),[4]; [B]/[Dimedone] = 2.0 mM,0.00348 ± 0.0004 abs/min
same,Rate relative to NHase,[4]; [B]/[Dimedone] = 2.0 mM,79%
same,Activity,[4]; [B]/[Dimedone] = 2.0 mM,0.775 nmol/min/mg
same,Average rate (abs/min),[4]; [B]/[Dimedone] = 2.5 mM,0.00319 ± 0.0007 abs/min
same,Rate relative to NHase,[4]; [B]/[Dimedone] = 2.5 mM,69%
same,Activity,[4]; [B]/[Dimedone] = 2.5 mM,0.782 nmol/min/mg
same,pKa,[2]; [5],8.55
same,pKa,[2]; [7],8.48
"OB(O)c1ccc(Br)cc1 [Compound 2e, 4-bromo-benzeneboronic acid]",pKa,[2]; [5],9.1 ± 0.1
"OB(O)c1ccc(F)cc1 [Compound 2f, 4-fluorobenzene-boronic acid]",pKa,[2]; [5],9.4 ± 0.02
"OB(O)c1ccccc1 [Compound 2g, phenylboronic acid]",Averaged -log (Kd) in 70% acetonitrile-water at 22° C.,[3]; [8],3.96 ± 0.04
same,Kd,[3]; [9],200 µM
same,Average rate (abs/min),[4]; [B]/[Dimedone] = 0.5 mM,0.0043 ± 0.0004 abs/min
same,Rate relative to NHase,[4]; [B]/[Dimedone] = 0.5 mM,96%
same,Activity,[4]; [B]/[Dimedone] = 0.5 mM,0.968 nmol/min/mg
same,Average rate (abs/min),[4]; [B]/[Dimedone] = 1.0 mM,0.0041 ± 0.0002 abs/min
same,Rate relative to NHase,[4]; [B]/[Dimedone] = 1.0 mM,91%
same,Activity,[4]; [B]/[Dimedone] = 1.0 mM,1.006 nmol/min/mg
same,Average rate (abs/min),[4]; [B]/[Dimedone] = 2.0 mM,0.00382 ± 0.00004 abs/min
same,Rate relative to NHase,[4]; [B]/[Dimedone] = 2.0 mM,87%
same,Activity,[4]; [B]/[Dimedone] = 2.0 mM,0.851 nmol/min/mg
same,Average rate (abs/min),[4]; [B]/[Dimedone] = 2.5 mM,0.0038 ± 0.0001 abs/min
same,Rate relative to NHase,[4]; [B]/[Dimedone] = 2.5 mM,83%
same,Activity,[4]; [B]/[Dimedone] = 2.5 mM,0.931 nmol/min/mg
same,pKa,[2]; [5],9.5 ± 0.06
same,pKa,[2]; [7],9.38
"COc1ccc(B(O)O)cc1 [Compound 2h, 4-methoxybenzeneboronic acid]",pKa,[2]; [5],10.13 ± 0.02
"CC1(C)CC(=O)CC(=O)C1 [Dimedone, 5,5-dimethyl-1,3-cyclohexanedione, reference compound]",Average rate (abs/min),[4]; [B]/[Dimedone] = 0.5 mM,0.00274 ± 0.00006 abs/min
same,Rate relative to NHase,[4]; [B]/[Dimedone] = 0.5 mM,61%
same,Activity,[4]; [B]/[Dimedone] = 0.5 mM,0.611 nmol/min/mg
same,Average rate (abs/min),[4]; [B]/[Dimedone] = 1.0 mM,0.0017 ± 0.0004 abs/min
same,Rate relative to NHase,[4]; [B]/[Dimedone] = 1.0 mM,37%
same,Activity,[4]; [B]/[Dimedone] = 1.0 mM,0.406 nmol/min/mg
same,Average rate (abs/min),[4]; [B]/[Dimedone] = 2.0 mM,0 abs/min
same,Rate relative to NHase,[4]; [B]/[Dimedone] = 2.0 mM,0%***
same,Activity,[4]; [B]/[Dimedone] = 2.0 mM,0 nmol/min/mg
same,Average rate (abs/min),[4]; [B]/[Dimedone] = 2.5 mM,0 abs/min
same,Rate relative to NHase,[4]; [B]/[Dimedone] = 2.5 mM,0%
same,Activity,[4]; [B]/[Dimedone] = 2.5 mM,0 nmol/min/mg
